Key:
[1] = target: T1, Oxysterols receptor LXR-beta (Homo sapiens, UniProt P55055); assay: Inverse agonist activity at LXRbeta (unknown origin)
T1 sequence (P55055 whole entry): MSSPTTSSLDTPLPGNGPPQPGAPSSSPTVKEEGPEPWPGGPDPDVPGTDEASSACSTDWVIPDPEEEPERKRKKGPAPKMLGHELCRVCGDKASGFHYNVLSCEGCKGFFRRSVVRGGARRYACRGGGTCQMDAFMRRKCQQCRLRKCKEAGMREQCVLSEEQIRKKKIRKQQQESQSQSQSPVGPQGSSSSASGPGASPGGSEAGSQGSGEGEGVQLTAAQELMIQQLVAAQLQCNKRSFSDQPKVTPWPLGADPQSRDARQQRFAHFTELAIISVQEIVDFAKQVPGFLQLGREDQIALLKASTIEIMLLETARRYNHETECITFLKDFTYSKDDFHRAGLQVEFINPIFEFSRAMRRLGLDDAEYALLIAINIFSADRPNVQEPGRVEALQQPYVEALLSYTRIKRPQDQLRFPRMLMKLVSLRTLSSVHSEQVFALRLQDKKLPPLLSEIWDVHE

[2] = target: T2, Oxysterols receptor LXR-alpha (Homo sapiens, UniProt Q13133); assay: Inverse agonist activity at LXRalpha (unknown origin)
T2 sequence (Q13133 whole entry): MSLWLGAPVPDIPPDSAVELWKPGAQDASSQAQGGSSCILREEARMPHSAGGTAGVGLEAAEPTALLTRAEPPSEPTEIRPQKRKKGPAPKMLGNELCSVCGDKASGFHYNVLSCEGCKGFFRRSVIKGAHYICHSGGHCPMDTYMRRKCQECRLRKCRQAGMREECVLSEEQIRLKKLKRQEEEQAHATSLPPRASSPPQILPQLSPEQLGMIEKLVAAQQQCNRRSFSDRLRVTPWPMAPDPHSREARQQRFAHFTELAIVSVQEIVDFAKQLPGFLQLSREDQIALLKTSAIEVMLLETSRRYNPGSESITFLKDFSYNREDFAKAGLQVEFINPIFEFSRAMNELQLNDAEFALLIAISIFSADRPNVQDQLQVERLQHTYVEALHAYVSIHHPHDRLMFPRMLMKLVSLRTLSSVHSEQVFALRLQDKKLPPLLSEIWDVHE

Cytochrome P450 2C8 = target: T3, Cytochrome P450 2C8 (Homo sapiens, UniProt P10632); assay: Inhibition of CYP2C8 (unknown origin); type: ADME
T3 sequence (P10632 whole entry): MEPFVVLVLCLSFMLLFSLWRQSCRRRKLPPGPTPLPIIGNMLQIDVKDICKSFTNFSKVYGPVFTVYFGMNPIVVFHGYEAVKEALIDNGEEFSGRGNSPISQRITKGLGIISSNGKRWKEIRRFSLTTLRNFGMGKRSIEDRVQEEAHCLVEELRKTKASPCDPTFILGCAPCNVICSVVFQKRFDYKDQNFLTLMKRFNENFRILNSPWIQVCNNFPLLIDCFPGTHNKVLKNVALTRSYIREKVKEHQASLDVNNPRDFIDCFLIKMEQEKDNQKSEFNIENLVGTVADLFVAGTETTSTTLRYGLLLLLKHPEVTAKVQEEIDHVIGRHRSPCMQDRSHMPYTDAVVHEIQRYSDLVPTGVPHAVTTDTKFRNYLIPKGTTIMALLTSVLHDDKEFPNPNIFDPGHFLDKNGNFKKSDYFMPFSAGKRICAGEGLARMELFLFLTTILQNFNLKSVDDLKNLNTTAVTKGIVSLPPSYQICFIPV

Cytochrome P450 2C9 = Cytochrome P450 2C9 (Homo sapiens, UniProt P11712); assay: Inhibition of CYP2C9 (unknown origin); type: ADME
Cytochrome P450 2C9, sequence (P11712 whole entry): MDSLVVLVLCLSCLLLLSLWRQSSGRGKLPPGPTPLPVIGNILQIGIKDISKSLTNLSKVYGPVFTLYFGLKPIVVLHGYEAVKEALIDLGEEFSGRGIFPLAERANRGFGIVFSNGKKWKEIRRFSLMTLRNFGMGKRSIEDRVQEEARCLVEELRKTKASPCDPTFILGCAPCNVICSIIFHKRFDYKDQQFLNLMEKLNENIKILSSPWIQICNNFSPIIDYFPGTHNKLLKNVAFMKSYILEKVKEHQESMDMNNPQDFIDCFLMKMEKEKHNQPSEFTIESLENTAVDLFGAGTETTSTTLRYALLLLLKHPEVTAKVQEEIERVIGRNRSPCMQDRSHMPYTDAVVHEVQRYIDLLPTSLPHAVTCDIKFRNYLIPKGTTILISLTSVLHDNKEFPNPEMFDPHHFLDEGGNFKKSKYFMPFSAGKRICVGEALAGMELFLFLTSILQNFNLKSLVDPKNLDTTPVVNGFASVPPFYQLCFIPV

[3] = Kinetic solubility of compound in 0.1 N HCK solvent at pH 1; type: physicochemical; settings: 0.1 N HCl (printed 0.1 N HCK), read-out: Kinetic_solubility
[4] = Drug concentration in BALB/c mouse at 4 mg/kg, po measured upto 24 hrs; type: ADME, organism-based; settings: in vivo, read-out: Drug uptake
[5] = Clearance in BALB/c mouse at 2 mg/kg, iv; type: ADME, organism-based; settings: in vivo
[6] = Volume of distribution at steady state in BALB/c mouse at 2 mg/kg, iv; type: ADME, organism-based; settings: in vivo, read-out: Vdss

CC(C)(O)CN1C(=O)[C@H](F)C[C@H]1C(=O)N1CC[C@@]2(S(=O)(=O)c3ccc(F)cc3)c3ccc(C(F)(C(F)(F)F)C(F)(F)F)cc3CC[C@@H]12
EC50 [1]: > 7.5 µM
EC50 [2]: > 7.5 µM
IC50 (Cytochrome P450 2C8): > 20 µM
IC50 (Cytochrome P450 2C9): 4.9 µM
solubility kinetic [3]: < 1 µg/mL
concentration at 24 h [4]: 620 nM
clearance [5]: 2 mL/min/kg
Vd [6]: 2.7 L/kg

Reference: ChEMBL document CHEMBL4665919, “Novel Tricyclic Pyroglutamide Derivatives as Potent RORγt Inverse Agonists Identified using a Virtual Screening Approach” (ACS Med Chem Lett, 2020)
